The text below walks through data of patent US9555036B2, “Pyrazolopyrimidine compounds” (GlaxoSmithKline LLC, priority 2012, dated 2017).

This experiment relates to TNF-α. Briefly: Induction of TNF-α using fresh human whole blood (WB). The note with it: three donors, overnight incubation, cytokine as % of 2 μM resiquimod control, read-out: mean pEC50 for TNF-α (converted). Type of experiment: cell-based. On the procedure: Assay for the Induction of Interferon-α and TNF-α Using Fresh Human Whole Blood (WB) Compound Preparation
Compounds were prepared at 100× required concentration in DMSO in flat-bottom microtitre plates at a volume of 1.5 μL. Columns 1-10 contained a 1 in 4 serial dilution of the test compound. Included on each plate was a serial dilution of the TLR7/8 agonist resiquimod as a standard and Column 11 contained 1.5 μl of 200 μM resiquimod (giving a 2 μM final concentration, used to define the approximate maximal response to resiquimod). Each compound was assayed in duplicate for each donor.
Incubation and Assays for Interferon-α and TNF-α
Blood samples from three human donors were collected into sodium heparin (10 U/ml). 150 μl of whole Blood was dispensed into Col 1 to 11 of assay plates containing 1.5 μl of test compound or standard in DMSO. Plates were placed in an incubator overnight (37° C., 95% air, 5% CO2). Following the overnight incubation, plates were removed from the incubator & mixed on an orbital shaker for approximately 1 minute. 100 μl of 0.9% saline was added to each well and the plates mixed again on an orbital shaker. Plates were then centrifuged (2500 rpm, 10 mins), after which a sample of plasma was removed using a Biomek FX and assayed for both IFN-α and TNF-α using the MSD (Mesoscale Discovery) electrochemiluminescence assay platform. The IFN-α assay was carried out similarly to that described above. The TNF-α assay was carried out as per kit instructions (Cat No K111BHB).
Cytokine released was expressed as a percentage of the 2 μM resiquimod control (column 11). This percentage was plotted against compound concentration and the pEC50 for the response determined by non-linear least squares curve fitting. For the IFN-α responses, generally a 4 parameter logistic model was selected. For the TNF responses where a clear maximum response was obtained (i.e. a well defined plateau in the response was observed) then a 4 parameter model was generally used. If the upper asymptote of the curve wasn't well defined then the curve fitting was generally constrained to a maximal response of 100% (i.e. to the response to 2 μM resiquimod) or to the response of the highest concentration tested if this was greater than the resiquimod response. Some curves were bell shaped for one or both cytokines and the cytokine data on the down slope of the bell shaped response (i.e. concentrations above those giving the maximal response) were generally excluded from the fit, usually with the exception of the concentration immediately above the peak response. Curve fitting thus concentrated on the up slope of the dose response curve.

Molecules are shown by their SMILES. Counter-ions that a name gives are not always drawn.

As to `CCCCc1nc(N)c2[nH]nc(CCCCCCN3CCCCC3)c2n1` [Example 1, 5-Butyl-3-(6-(piperidin-1-yl)hexyl)-1H-pyrazolo[4,3-d]pyrimidin-7-amine formate], the EC50 was at most 3.98 µM.

In the case of `COCCc1nc(N)c2[nH]nc(CCCCCCN3CCCCC3)c2n1` [Example 2, 5-(2-Methoxyethyl)-3-(6-(piperidin-1-yl)hexyl)-1H-pyrazolo[4,3-d]pyrimidin-7-amine], the EC50 was at most 3.98 µM. For `COCCc1nc(N)c2[nH]nc(CCCCCCN3CCCC3)c2n1` [Example 4, 5-(2-Methoxyethyl)-3-(6-(pyrrolidin-1-yl)hexyl)-1H-pyrazolo[4,3-d]pyrimidin-7-amine], the EC50 was at most 3.98 µM. Take `CCCCc1nc(N)c2[nH]nc(CCCCCN3CCCCC3)c2n1` [Example 5, 5-Butyl-3-(5-(piperidin-1-yl)pentyl)-1H-pyrazolo[4,3-d]pyrimidin-7-amine]: the EC50 is at most 3.98 µM. Regarding `CCCCc1nc(N)c2[nH]nc(CCCCCN3CCCC3)c2n1` [Example 6, 5-Butyl-3-(5-(pyrrolidin-1-yl)pentyl)-1H-pyrazolo[4,3-d]pyrimidin-7-amine], the EC50 was at most 3.98 µM. In the case of `CCCCc1nc(N)c2[nH]nc(CCCCCCCN3CCCCC3)c2n1` [Example 7, 5-Butyl-3-(7-(piperidin-1-yl)heptyl)-1H-pyrazolo[4,3-d]pyrimidin-7-amine] it was at most 3.98 µM; in that of `CCCCc1nc(N)c2[nH]nc(CCCCCCCN3CCCC3)c2n1` [Example 8, 5-Butyl-3-(7-(pyrrolidin-1-yl)heptyl)-1H-pyrazolo[4,3-d]pyrimidin-7-amine], at most 3.98 µM; in that of `CCCCc1nc(N)c2[nH]nc(CCCCCCN3CCCCCC3)c2n1` [Example 9, 3-(6-(Azepan-1-yl)hexyl)-5-butyl-1H-pyrazolo[4,3-d]pyrimidin-7-amine], at most 3.98 µM. For `CCCCc1nc(N)c2[nH]nc(CCCCCN3CCCCCC3)c2n1` [Example 10, 3-(5-(Azepan-1-yl)pentyl)-5-butyl-1H-pyrazolo[4,3-d]pyrimidin-7-amine], the EC50 is at most 3.98 µM.

As for `CCCCc1nc(N)c2[nH]nc(CCCCCCN3CC[C@H](F)C3)c2n1` [Example 11, (S)-5-Butyl-3-(6-(3-fluoropyrrolidin-1-yl)hexyl)-1H-pyrazolo[4,3-d]pyrimidin-7-amine], the EC50 is at most 3.98 µM. With `CCCCc1nc(N)c2[nH]nc(CCCCCN3CC[C@H](F)C3)c2n1` [Example 12, (S)-5-Butyl-3-(5-(3-fluoropyrrolidin-1-yl)pentyl)-1H-pyrazolo[4,3-d]pyrimidin-7-amine], the EC50 is at most 3.98 µM. Consider `CCCCc1nc(N)c2[nH]nc(CCCCCCN3CC[C@@H](F)C3)c2n1` [Example 13, (R)-5-Butyl-3-(6-(3-fluoropyrrolidin-1-yl)hexyl)-1H-pyrazolo[4,3-d]pyrimidin-7-amine formate], for which the EC50 is at most 3.98 µM.

For the molecule `CCCCc1nc(N)c2[nH]nc(CCCCCN3CC[C@@H](F)C3)c2n1` [Example 14, (R)-5-Butyl-3-(5-(3-fluoropyrrolidin-1-yl)pentyl)-1H-pyrazolo[4,3-d]pyrimidin-7-amine], the EC50 is at most 3.98 µM. Regarding `CCCCc1nc(N)c2[nH]nc(CCCCCCN3CCC(O)CC3)c2n1` [Example 15, 1-(6-(7-Amino-5-butyl-1H-pyrazolo[4,3-d]pyrimidin-3-yl)hexyl)piperidin-4-ol], the EC50 was at most 3.98 µM. In the case of `CCCCc1nc(N)c2[nH]nc(CCCCCN3CCC(O)CC3)c2n1` [Example 16, 1-(5-(7-Amino-5-butyl-1H-pyrazolo[4,3-d]pyrimidin-3-yl)pentyl)piperidin-4-ol] it was at most 3.98 µM.

`CCCCc1nc(N)c2[nH]nc(CCCCCCN3CCC(F)CC3)c2n1` [Example 17, 5-Butyl-3-(6-(4-fluoropiperidin-1-yl)hexyl)-1H-pyrazolo[4,3-d]pyrimidin-7-amine formate]: the EC50 is at most 3.98 µM. In the case of `CCCCc1nc(N)c2[nH]nc(CCCCCN3CCC(F)CC3)c2n1` [Example 18, 5-Butyl-3-(5-(4-fluoropiperidin-1-yl)pentyl)-1H-pyrazolo[4,3-d]pyrimidin-7-amine], the EC50 was at most 3.98 µM.
